Source: patent US5185320A, “O^56 -alkyl derivatives of aglycone and pseudo aglycones of teicoplanin” (Gruppo Lepetit S.p.A., priority 1989, dated 1993)

What was measured:
Format in all cases: cell-based
Details in all cases: inoculum about 10^4 CFU/ml, 18-24 h at 37° C.
Strep. pneumoniae UC41 = experiment: MIC, standard dilution test, Strep. pneumoniae UC41
Procedure: (§1) ISOSENSITEST broth (Oxoid) and TOLLD-HEWITT broth (Difco) are used for growing staphylococci and streptococci, respectively. Broth cultures are diluted so that the final inoculum is about 10^4 colony forming units/ml (CFU/ml).

Strep. mitis L 796 = experiment: MIC, standard dilution test, Strep. mitis L 796
Procedure: as §1

[1] = system: Strep. faecalis ATCC 7080; experiment: MIC, standard dilution test, Strep. faecalis ATCC 7080
Procedure: as §1

[2] = system: Haemophilus influenzae ATCC 19418; experiment: MIC, standard dilution test, Haemophilus influenzae ATCC 19418
Procedure: as §1

[3] = system: Pseudomonas aeruginosa ATCC 10145; experiment: MIC, standard dilution test, Pseudomonas aeruginosa ATCC 10145
Procedure: as §1

[4] = system: Neisseria gonorrhoeae ISM68/126; experiment: MIC, standard dilution test, Neisseria gonorrhoeae ISM68/126
Procedure: as §1

[5] = system: Staph. haemolyticus L 602; experiment: MIC, standard dilution test, Staph. haemolyticus L 602
Procedure: as §1

Strep. pyogenes C 203 = experiment: MIC, standard dilution test, Strep. pyogenes C 203
Procedure: as §1

Staph. aureus Tour L 165 = experiment: MIC, standard dilution test, Staph. aureus Tour L 165
Procedure: as §1

[6] = system: Escherichia coli SKF 12140; experiment: MIC, standard dilution test, Escherichia coli SKF 12140
Procedure: as §1

[7] = system: Proteus vulgaris ATCC 881; experiment: MIC, standard dilution test, Proteus vulgaris ATCC 881
Procedure: as §1

[8] = system: Staph. epidermidis ATCC 12228; experiment: MIC, standard dilution test, Staph. epidermidis ATCC 12228
Procedure: as §1

| Compound | Minimal inhibitory concentration (MIC) (Strep. pneumoniae UC41) | Minimal inhibitory concentration (MIC) (Strep. mitis L 796) | Minimal inhibitory concentration (MIC) [1] | Minimal inhibitory concentration (MIC) [2] | Minimal inhibitory concentration (MIC) [3] | Minimal inhibitory concentration (MIC) [4] | Minimal inhibitory concentration (MIC) (Strep. pyogenes C 203) | Minimal inhibitory concentration (MIC) (Staph. aureus Tour L 165) | Minimal inhibitory concentration (MIC) [6] | Minimal inhibitory concentration (MIC) [7] | Minimal inhibitory concentration (MIC) [8] | Minimal inhibitory concentration (MIC) [5] |
| --- | --- | --- | --- | --- | --- | --- | --- | --- | --- | --- | --- | --- |
| COC(=O)C1NC(=O)C2NC(=O)C(NC(=O)C3NC(=O)C4NC(=O)C(Cc5ccc(c(Cl)c5)Oc5cc3cc(c5OCCCCN)Oc3ccc(cc3Cl)C2O[C@@H]2O[C@H](CO)[C@@H](O)[C@H](O)[C@H]2NC(C)=O)NC(=O)C(N)c2ccc(O)c(c2)Oc2cc(O)cc4c2)c2ccc(O)c(c2)-c2c(O[C@H]3O[C@H](CO)[C@@H](O)[C@H](O)[C@@H]3O)cc(O)cc21 (stereo partly drawn) [Compound 10, O^56-(4-aminobutyl)teicoplanin pseudoaglycone methyl ester] | 1 | 1 | 4 | > 128 | > 128 | > 128 | 0.125 | 2 | > 128 | > 128 | 4 | 16 |
| N#CCOC(=O)C1NC(=O)C2NC(=O)C(NC(=O)C3NC(=O)C4NC(=O)C(Cc5ccc(c(Cl)c5)Oc5cc3cc(c5OCC#N)Oc3ccc(cc3Cl)C2O)NC(=O)C(N)c2ccc(O)c(c2)Oc2cc(O)cc4c2)c2ccc(O)c(c2)-c2c(O)cc(O)cc21.O=C(O)C(F)(F)F (stereo not drawn) [Compound 12, O^56 -(cyanomethyl)deglucoteicoplanin cyanomethyl ester trifluoroacetate salt] | 0.125 | 0.125 | 1 | 64 | > 128 | > 128 | 0.125 | 0.125 | > 128 | > 128 | 0.063 | 1 |
| NC1C(=O)NC2Cc3ccc(c(Cl)c3)Oc3cc4cc(c3OCc3ccccc3)Oc3ccc(cc3Cl)C(O)C3NC(=O)C(NC(=O)C4NC(=O)C(NC2=O)c2cc(O)cc(c2)Oc2cc1ccc2O)c1ccc(O)c(c1)-c1c(O)cc(O)cc1C(C(=O)OCc1ccccc1)NC3=O (stereo not drawn) [Compound 20, O^56 -phenylmethyldeglucoteicoplanin phenylmethyl ester] | 0.25 | 0.125 | 0.5 | > 128 | > 128 | > 128 | 0.125 | 0.5 | > 128 | > 128 | 0.25 | 4 |
| NC1C(=O)NC2Cc3ccc(c(Cl)c3)Oc3cc4cc(c3OC3CCOC3=O)Oc3ccc(cc3Cl)C(O)C3NC(=O)C(NC(=O)C4NC(=O)C(NC2=O)c2cc(O)cc(c2)Oc2cc1ccc2O)c1ccc(O)c(c1)-c1c(O)cc(O)cc1C(C(=O)OCc1ccccc1)NC3=O (stereo not drawn) [Compound 21, O^56-(tetrahydro-2-oxo-3-furanyl)deglucoteicoplanin phenylmethyl ester] | 0.25 | 0.25 | 2 | > 128 | > 128 | > 128 | 0.125 | 2 | > 128 | > 128 | 1 | 4 |

Continued, in another order:

| Minimal inhibitory concentration (MIC) (Strep. pneumoniae UC41) | Minimal inhibitory concentration (MIC) (Strep. mitis L 796) | Minimal inhibitory concentration (MIC) [1] | Minimal inhibitory concentration (MIC) [2] | Minimal inhibitory concentration (MIC) [3] | Minimal inhibitory concentration (MIC) [4] | Minimal inhibitory concentration (MIC) (Strep. pyogenes C 203) | Minimal inhibitory concentration (MIC) (Staph. aureus Tour L 165) | Minimal inhibitory concentration (MIC) [6] | Minimal inhibitory concentration (MIC) [7] | Minimal inhibitory concentration (MIC) [8] | Compound | Minimal inhibitory concentration (MIC) [5] |
| --- | --- | --- | --- | --- | --- | --- | --- | --- | --- | --- | --- | --- |
| 0.25 | 0.25 | 1 | 64 | > 128 | > 128 | 0.125 | 0.5 | 64 | > 128 | 0.125 | COC(=O)C1NC(=O)C2NC(=O)C(NC(=O)C3NC(=O)C4NC(=O)C(Cc5ccc(c(Cl)c5)Oc5cc3cc(c5OCCBr)Oc3ccc(cc3Cl)C2O)NC(=O)C(N)c2ccc(O)c(c2)Oc2cc(O)cc4c2)c2ccc(O)c(c2)-c2c(O)cc(O)cc21 (stereo not drawn) [Compound 11, O^56-(2-bromoethyl)deglucoteicoplanin methyl ester] | 2 |
| 0.25 | 0.125 | 0.125 | 64 | 64 | 32 | 0.125 | 0.125 | 8 | 128 | 0.25 | COC(=O)C1NC(=O)C2NC(=O)C(NC(=O)C3NC(=O)C4NC(=O)C(Cc5ccc(c(Cl)c5)Oc5cc3cc(c5OCCN3CCCC3)Oc3ccc(cc3Cl)C2O)NC(=O)C(N)c2ccc(O)c(c2)Oc2cc(O)cc4c2)c2ccc(O)c(c2)-c2c(O)cc(O)cc21.Cl.Cl (stereo not drawn) [Compound 13, O^56-[2-(1-pyrrolidinyl)ethyl]deglucoteicoplanin methyl ester dihydrochloride] | 0.5 |
| 0.125 | 0.125 | 0.125 | 64 | > 128 | 64 | 0.25 | 0.25 | 32 | > 128 | 0.125 | COC(=O)C1NC(=O)C2NC(=O)C(NC(=O)C3NC(=O)C4NC(=O)C(Cc5ccc(c(Cl)c5)Oc5cc3cc(c5OCCN3CCOCC3)Oc3ccc(cc3Cl)C2O)NC(=O)C(N)c2ccc(O)c(c2)Oc2cc(O)cc4c2)c2ccc(O)c(c2)-c2c(O)cc(O)cc21.Cl.Cl (stereo not drawn) [Compound 14, O^56-[2-(1-morpholinyl)ethyl]deglucoteicoplanin methyl ester dihydrochloride] | 2 |
| 0.125 | 0.25 | 0.25 | 128 | 64 | 64 | 0.063 | 0.125 | 8 | 64 | 0.125 | NCCNCCOc1c2cc3cc1Oc1ccc(cc1Cl)C(O)C1NC(=O)C(NC(=O)C3NC(=O)C3NC(=O)C(Cc4ccc(c(Cl)c4)O2)NC(=O)C(N)c2ccc(O)c(c2)Oc2cc(O)cc3c2)c2ccc(O)c(c2)-c2c(O)cc(O)cc2C(C(=O)NCCN)NC1=O (stereo not drawn) [Compound 15, O^56-[2-(1-ethylendiaminyl)ethyl]deglucoteicoplanin ethylenediamine amide] | 0.25 |
| 0.25 | 0.5 | 0.5 | > 128 | > 128 | 64 | 0.5 | 0.125 | > 128 | > 128 | 0.25 | NC1C(=O)NC2Cc3ccc(c(Cl)c3)Oc3cc4cc(c3OC3CCOC3=O)Oc3ccc(cc3Cl)C(O)C3NC(=O)C(NC(=O)C4NC(=O)C(NC2=O)c2cc(O)cc(c2)Oc2cc1ccc2O)c1ccc(O)c(c1)-c1c(O)cc(O)cc1C(C(=O)O)NC3=O (stereo not drawn) [Compound 16, O^56-(tetrahydro-2-oxo-3-furanyl)deglucoteicoplanin] | 4 |
| 0.5 | 0.25 | 0.125 | > 128 | > 128 | > 128 | 0.125 | 0.25 | > 128 | > 128 | 0.125 | Cl.NC1C(=O)NC2Cc3ccc(c(Cl)c3)Oc3cc4cc(c3OCCBr)Oc3ccc(cc3Cl)C(O)C3NC(=O)C(NC(=O)C4NC(=O)C(NC2=O)c2cc(O)cc(c2)Oc2cc1ccc2O)c1ccc(O)c(c1)-c1c(O)cc(O)cc1C(C(=O)OCCBr)NC3=O (stereo not drawn) [Compound 17, O^56-(2-bromoethyl)deglucoteicoplanin 2-bromoethyl ester hydrochloride salt] | 4 |
